Publication PMC12583774 (Nature Communications, 2025)

Tests used:
[1] = system: SARS-CoV-2 strain (Wuhan-Hu-1); assay: microbe, parasite or virus in culture; assay type: cell-based; conditions: Severe acute respiratory syndrome coronavirus 2, A549-ACE2, 24 h
[2] = system: SARS-CoV-2 nCoV-SH01 strain; design: species or system K18-hACE2 transgenic mice; conditions: mouse, in vivo

CCC(CC)COC(=O)[C@H](C)N[P@](=O)(OC[C@H]1O[C@@](C#N)(c2ccc3c(N)ncnn23)[C@H](O)[C@@H]1O)Oc1ccccc1 [remdesivir]
EC50 [1]: 60 nM
SARS-CoV-2 N protein antigen staining in lungs (IHC) [2]: significantly reduced viral antigen staining
lung pathological features (H&E) [2]: markedly alleviated
